{"source": "patent US20230073512A1", "about": "“MODULATORS OF CULLIN 3 ADAPTOR KBTBD4 AS ANTI-CANCER COMPOUNDS” (UNIVERSITE DE MONTREAL, priority 2019, published 2023)", "key": {"MonoMac": {"test_system": "MonoMac", "experiment": "Cell proliferation of cancerous cell lines", "assay_type": "cell-based", "conditions": "MonoMac cell line; read-out: Antineoplastic effect on cell proliferation, IC50"}, "AML samples": {"test_system": "AML samples", "experiment": "Cell proliferation of cancerous samples from patients"}, "AML3": {"test_system": "AML3", "experiment": "Cell proliferation of cancerous cell lines", "assay_type": "cell-based", "conditions": "AML3 cell line; read-out: Antineoplastic effect on cell proliferation, IC50"}, "MUTZ-8": {"test_system": "MUTZ-8", "experiment": "Cell proliferation of cancerous cell lines", "assay_type": "cell-based", "conditions": "MUTZ-8 cell line; read-out: Antineoplastic effect on cell proliferation, IC50"}, "in vivo": {"experiment": "in vivo", "conditions": "mouse", "protocol": "PK assays were performed in mice (n=3). […] The following pharmacokinetic parameters were calculated.\nThe compounds were orally administered at 20 mg/kg and plasma samples were collected at 15, 30 minutes and 1, 2, 4, 6 and 8 hours after administration. The following pharmacokinetic parameters were calculated."}, "EOL1": {"test_system": "EOL1", "experiment": "Cell proliferation of cancerous cell lines", "assay_type": "cell-based", "conditions": "Homo sapiens; EOL1 cell line; read-out: Antineoplastic effect on cell proliferation, IC50"}, "HL-60": {"test_system": "HL-60", "experiment": "Cell proliferation of cancerous cell lines", "assay_type": "cell-based", "conditions": "Homo sapiens; HL-60 cell line; read-out: Antineoplastic effect on cell proliferation, IC50"}, "AML5": {"test_system": "AML5", "experiment": "Cell proliferation of cancerous cell lines", "assay_type": "cell-based", "conditions": "AML5 cell line; read-out: Antineoplastic effect on cell proliferation, IC50"}, "SKNO": {"test_system": "SKNO", "experiment": "Cell proliferation of cancerous cell lines", "assay_type": "cell-based", "conditions": "SKNO cell line; read-out: Antineoplastic effect on cell proliferation, IC50"}, "KG1a": {"test_system": "KG1a", "experiment": "Cell proliferation of cancerous cell lines", "assay_type": "cell-based", "conditions": "Homo sapiens, KG-1a; KG1a cell line; read-out: Antineoplastic effect on cell proliferation, IC50"}, "AML4": {"test_system": "AML4", "experiment": "Cell proliferation of cancerous cell lines", "assay_type": "cell-based", "conditions": "AML4 cell line; read-out: Antineoplastic effect on cell proliferation, IC50"}, "MUTZ-2": {"test_system": "MUTZ-2", "experiment": "Cell proliferation of cancerous cell lines", "assay_type": "cell-based", "conditions": "MUTZ-2 cell line; read-out: Antineoplastic effect on cell proliferation, IC50"}, "LY-1": {"test_system": "LY-1", "experiment": "Cell proliferation of cancerous cell lines", "assay_type": "cell-based", "conditions": "Ly1; LY-1 cell line; read-out: Antineoplastic effect on cell proliferation, IC50"}, "MOLM-13": {"test_system": "MOLM-13", "experiment": "Cell proliferation of cancerous cell lines", "assay_type": "cell-based", "conditions": "Homo sapiens; MOLM-13 cell line; read-out: Antineoplastic effect on cell proliferation, IC50"}, "KU-812": {"test_system": "KU-812", "experiment": "Cell proliferation of cancerous cell lines", "assay_type": "cell-based", "conditions": "Homo sapiens, KU812; KU-812 cell line; read-out: Antineoplastic effect on cell proliferation, IC50"}, "KG1": {"test_system": "KG1", "experiment": "Cell proliferation of cancerous cell lines", "assay_type": "cell-based", "conditions": "Homo sapiens, KG-1; KG1 cell line; read-out: Antineoplastic effect on cell proliferation, IC50"}, "CB": {"test_system": "CB", "experiment": "Cell proliferation, CB sample of Table 2", "conditions": "read-out: Antineoplastic effect on cell proliferation, IC50"}, "KBM7": {"test_system": "KBM7", "experiment": "Cell proliferation of cancerous cell lines", "assay_type": "cell-based", "conditions": "KBM-7; KBM7 cell line; read-out: Antineoplastic effect on cell proliferation, IC50"}, "Z-138": {"test_system": "Z-138", "experiment": "Cell proliferation of cancerous cell lines", "assay_type": "cell-based", "conditions": "Homo sapiens; Z-138 cell line; read-out: Antineoplastic effect on cell proliferation, IC50"}, "UT-7": {"test_system": "UT-7", "experiment": "Cell proliferation of cancerous cell lines", "assay_type": "cell-based", "conditions": "Homo sapiens, UT7; UT-7 cell line; read-out: Antineoplastic effect on cell proliferation, IC50"}, "NB-4": {"test_system": "NB-4", "experiment": "Cell proliferation of cancerous cell lines", "assay_type": "cell-based", "conditions": "Homo sapiens; NB-4 cell line; read-out: Antineoplastic effect on cell proliferation, IC50"}}, "note": "Where two headings read alike, the source gives them in different places."}
{"smiles": "Cn1nnc(-c2ccc3c(c2)[nH]c2ncnc(NCCCN4CCCCC4)c23)n1", "note": "[UM681]", "values": [{"measurement": "IC50", "setting": "MonoMac", "result": "1 to 10", "unit": "µM"}, {"measurement": "IC50", "setting": "AML samples; read-out: Antineoplastic effect on cell proliferation, IC50, AML sample 04H063", "result": "1 to 10", "unit": "µM"}, {"measurement": "IC50", "setting": "AML samples; read-out: Antineoplastic effect on cell proliferation, IC50, AML sample 05H094", "result": "1 to 10", "unit": "µM"}, {"measurement": "IC50", "setting": "AML samples; read-out: Antineoplastic effect on cell proliferation, IC50, AML sample 05H149", "result": "1 to 10", "unit": "µM"}, {"measurement": "IC50", "setting": "AML samples; read-out: Antineoplastic effect on cell proliferation, IC50, AML sample 06H045", "result": "1 to 10", "unit": "µM"}, {"measurement": "IC50", "setting": "AML samples; read-out: Antineoplastic effect on cell proliferation, IC50, AML sample 06H088", "result": "> 10", "unit": "µM"}, {"measurement": "IC50", "setting": "AML samples; read-out: Antineoplastic effect on cell proliferation, IC50, AML sample 06H117", "result": "1 to 10", "unit": "µM"}, {"measurement": "IC50", "setting": "AML samples; read-out: Antineoplastic effect on cell proliferation, IC50, AML sample 07H005", "result": "1 to 10", "unit": "µM"}, {"measurement": "IC50", "setting": "AML samples; read-out: Antineoplastic effect on cell proliferation, IC50, AML sample 07H038", "result": "1 to 10", "unit": "µM"}, {"measurement": "IC50", "setting": "AML samples; read-out: Antineoplastic effect on cell proliferation, IC50, AML sample 07H045", "result": "> 10", "unit": "µM"}, {"measurement": "IC50", "setting": "AML samples; read-out: Antineoplastic effect on cell proliferation, IC50, AML sample 07H125", "result": "1 to 10", "unit": "µM"}, {"measurement": "IC50", "setting": "AML samples; read-out: Antineoplastic effect on cell proliferation, IC50, AML sample 07H135", "result": "1 to 10", "unit": "µM"}, {"measurement": "IC50", "setting": "AML samples; read-out: Antineoplastic effect on cell proliferation, IC50, AML sample 07H151", "result": "> 10", "unit": "µM"}, {"measurement": "IC50", "setting": "AML samples; read-out: Antineoplastic effect on cell proliferation, IC50, AML sample 08H018", "result": "> 10", "unit": "µM"}, {"measurement": "IC50", "setting": "AML samples; read-out: Antineoplastic effect on cell proliferation, IC50, AML sample 09H010", "result": "1 to 10", "unit": "µM"}, {"measurement": "IC50", "setting": "AML samples; read-out: Antineoplastic effect on cell proliferation, IC50, AML sample 09H046", "result": "> 10", "unit": "µM"}, {"measurement": "IC50", "setting": "AML samples; read-out: Antineoplastic effect on cell proliferation, IC50, AML sample 09H079", "result": "1 to 10", "unit": "µM"}, {"measurement": "IC50", "setting": "AML samples; read-out: Antineoplastic effect on cell proliferation, IC50, AML sample 09H115", "result": "1 to 10", "unit": "µM"}, {"measurement": "IC50", "setting": "AML samples; read-out: Antineoplastic effect on cell proliferation, IC50, AML sample 10H022", "result": "0.25 to 1", "unit": "µM"}, {"measurement": "IC50", "setting": "AML samples; read-out: Antineoplastic effect on cell proliferation, IC50, AML sample 10H127", "result": "1 to 10", "unit": "µM"}, {"measurement": "IC50", "setting": "AML samples; read-out: Antineoplastic effect on cell proliferation, IC50, AML sample 11H002", "result": "1 to 10", "unit": "µM"}, {"measurement": "IC50", "setting": "AML samples; read-out: Antineoplastic effect on cell proliferation, IC50, AML sample 11H046", "result": "0.25 to 1", "unit": "µM"}, {"measurement": "IC50", "setting": "AML samples; read-out: Antineoplastic effect on cell proliferation, IC50, AML sample 11H103", "result": "1 to 10", "unit": "µM"}, {"measurement": "IC50", "setting": "AML samples; read-out: Antineoplastic effect on cell proliferation, IC50, AML sample 12H045", "result": "1 to 10", "unit": "µM"}, {"measurement": "IC50", "setting": "AML samples; read-out: Antineoplastic effect on cell proliferation, IC50, AML sample 12H058", "result": "1 to 10", "unit": "µM"}, {"measurement": "IC50", "setting": "AML samples; read-out: Antineoplastic effect on cell proliferation, IC50, AML sample 12H096", "result": "> 10", "unit": "µM"}, {"measurement": "IC50", "setting": "AML samples; read-out: Antineoplastic effect on cell proliferation, IC50, AML sample 12H106", "result": "> 10", "unit": "µM"}, {"measurement": "IC50", "setting": "AML samples; read-out: Antineoplastic effect on cell proliferation, IC50, AML sample 12H151", "result": "1 to 10", "unit": "µM"}, {"measurement": "IC50", "setting": "AML samples; read-out: Antineoplastic effect on cell proliferation, IC50, AML sample 13H100", "result": "1 to 10", "unit": "µM"}, {"measurement": "IC50", "setting": "AML samples; read-out: Antineoplastic effect on cell proliferation, IC50, AML sample 13H150", "result": "1 to 10", "unit": "µM"}, {"measurement": "IC50", "setting": "AML3", "result": "1 to 10", "unit": "µM"}, {"measurement": "IC50", "setting": "MUTZ-8", "result": "> 10", "unit": "µM"}, {"measurement": "bioavailability", "setting": "in vivo; female, po, 20 mg/kg", "result": 39, "unit": "%"}, {"measurement": "bioavailability", "setting": "in vivo; male, po, 20 mg/kg", "result": 31, "unit": "%"}, {"measurement": "Vd", "setting": "in vivo; iv, 1 mg/kg", "result": 14.3, "unit": "L/kg"}, {"measurement": "clearance", "setting": "in vivo; iv, 1 mg/kg", "result": 109, "unit": "mL/min/kg"}, {"measurement": "half-life", "setting": "in vivo; iv, 1 mg/kg", "result": 1.9, "unit": "h"}, {"measurement": "AUC", "setting": "in vivo; po, 20 mg/kg", "result": 2.45, "unit": "µM·h"}, {"measurement": "Cmax", "setting": "in vivo; po, 20 mg/kg", "result": 200, "unit": "nM"}, {"measurement": "Tmax", "setting": "in vivo; po, 20 mg/kg", "result": 4, "unit": "h"}, {"measurement": "IC50", "setting": "EOL1", "result": "0.25 to 1", "unit": "µM"}, {"measurement": "IC50", "setting": "HL-60", "result": "1 to 10", "unit": "µM"}, {"measurement": "IC50", "setting": "AML5", "result": "1 to 10", "unit": "µM"}, {"measurement": "IC50", "setting": "SKNO", "result": "1 to 10", "unit": "µM"}, {"measurement": "IC50", "setting": "KG1a", "result": "1 to 10", "unit": "µM"}, {"measurement": "IC50", "setting": "AML4", "result": "0.25 to 1", "unit": "µM"}, {"measurement": "IC50", "setting": "MUTZ-2", "result": "1 to 10", "unit": "µM"}, {"measurement": "IC50", "setting": "LY-1", "result": "> 10", "unit": "µM"}, {"measurement": "IC50", "setting": "MOLM-13", "result": "0.25 to 1", "unit": "µM"}, {"measurement": "IC50", "setting": "KU-812", "result": "1 to 10", "unit": "µM"}, {"measurement": "IC50", "setting": "KG1", "result": "1 to 10", "unit": "µM"}, {"measurement": "IC50", "setting": "CB", "result": "1 to 10", "unit": "µM"}, {"measurement": "IC50", "setting": "KBM7", "result": "> 10", "unit": "µM"}, {"measurement": "IC50", "setting": "Z-138", "result": "1 to 10", "unit": "µM"}, {"measurement": "IC50", "setting": "UT-7", "result": "> 10", "unit": "µM"}, {"measurement": "IC50", "setting": "NB-4", "result": "1 to 10", "unit": "µM"}]}
